From ChEMBL document CHEMBL1770110, “Pyrimido[4,5-d]azepines as potent and selective 5-HT2C receptor agonists: design, synthesis, and evaluation of PF-3246799 as a treatment for urinary incontinence” (Bioorg Med Chem Lett, 2011)
The source made the active and inactive calls. The rule behind the calls is not given here.

Legend:
[1] = molecular target: T1, 5-hydroxytryptamine receptor 2C (Homo sapiens) (UniProt P28335); experiment: Agonist activity at human 5HT2C receptor expressed in CHO-K1 cells assessed as increase of fluorescence based calcium mobilization by FLIPR assay relative to control; format: functional, cell-based
T1 sequence (whole entry): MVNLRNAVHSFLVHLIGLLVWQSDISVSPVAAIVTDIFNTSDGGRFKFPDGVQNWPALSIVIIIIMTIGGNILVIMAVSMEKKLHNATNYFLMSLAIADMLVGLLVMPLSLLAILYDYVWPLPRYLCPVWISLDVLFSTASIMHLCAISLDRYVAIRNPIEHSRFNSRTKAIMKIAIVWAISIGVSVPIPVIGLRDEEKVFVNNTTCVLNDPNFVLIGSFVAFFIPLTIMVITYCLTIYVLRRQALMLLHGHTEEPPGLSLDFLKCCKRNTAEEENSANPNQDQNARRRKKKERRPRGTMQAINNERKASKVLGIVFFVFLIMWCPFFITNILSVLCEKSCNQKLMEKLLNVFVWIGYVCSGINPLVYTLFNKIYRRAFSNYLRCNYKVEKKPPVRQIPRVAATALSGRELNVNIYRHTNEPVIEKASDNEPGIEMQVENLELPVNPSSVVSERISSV

[2] = molecular target: T2, 5-hydroxytryptamine receptor 2B (Homo sapiens, UniProt P41595); experiment: Agonist activity at human 5HT2B receptor expressed in CHO-K1 cells assessed as increase of fluorescence based calcium mobilization by FLIPR assay; format: functional, cell-based
[3] = molecular target: T2, 5-hydroxytryptamine receptor 2B; experiment: Agonist activity at human 5HT2B receptor expressed in CHO-K1 cells assessed as increase of fluorescence based calcium mobilization by FLIPR assay relative to control; format: functional, cell-based
[4] = molecular target: T3, 5-hydroxytryptamine receptor 2C (Canis lupus familiaris) (UniProt Q60F97); experiment: Agonist activity at dog 5HT2C receptor ralative to control; format: functional
T3 sequence (whole entry): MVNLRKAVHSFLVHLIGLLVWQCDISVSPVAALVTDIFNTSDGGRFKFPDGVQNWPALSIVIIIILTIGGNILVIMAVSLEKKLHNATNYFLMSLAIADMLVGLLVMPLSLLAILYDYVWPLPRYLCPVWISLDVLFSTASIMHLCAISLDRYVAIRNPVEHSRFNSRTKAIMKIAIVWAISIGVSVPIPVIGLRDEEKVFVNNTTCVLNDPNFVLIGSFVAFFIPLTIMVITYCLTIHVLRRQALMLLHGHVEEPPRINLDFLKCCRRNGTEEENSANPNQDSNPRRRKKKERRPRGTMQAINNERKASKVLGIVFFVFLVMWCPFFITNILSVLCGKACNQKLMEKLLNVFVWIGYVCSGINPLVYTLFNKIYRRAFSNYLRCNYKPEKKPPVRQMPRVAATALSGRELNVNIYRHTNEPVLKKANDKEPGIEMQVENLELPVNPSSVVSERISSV

[5] = molecular target: T1, 5-hydroxytryptamine receptor 2C (Homo sapiens); experiment: Agonist activity at human 5HT2C receptor expressed in HEK293 cells assessed as 5-HT-induced maximum response by inositol phosphate accumulation assay; format: functional, cell-based
[6] = molecular target: T2, 5-hydroxytryptamine receptor 2B; experiment: Agonist activity at human 5HT2B receptor expressed in CHO-K1 cells assessed as increase of fluorescence based calcium mobilization at 10 uM by FLIPR assay relative to control; format: functional, cell-based
[7] = molecular target: T1, 5-hydroxytryptamine receptor 2C (Homo sapiens); experiment: Agonist activity at human 5HT2C receptor expressed in CHO-K1 cells assessed as increase of fluorescence based calcium mobilization at 10 uM by FLIPR assay relative to control; format: functional, cell-based
Canis familiaris [8] = experiment: Increase of peak urethral pressure in iv dosed anesthetized dog stress urinary incontinence model; format: functional, organism-based; conditions: Canis lupus familiaris; Urethra
[9] = Binding affinity to L-type calcium channel verapamil binding site at 10000 nM
[10] = molecular target: T4, Muscarinic acetylcholine receptor M1 (Homo sapiens) (UniProt P11229); experiment: Agonist activity at human muscarinic M1 receptor up to 10 uM; format: functional
T4 sequence (whole entry): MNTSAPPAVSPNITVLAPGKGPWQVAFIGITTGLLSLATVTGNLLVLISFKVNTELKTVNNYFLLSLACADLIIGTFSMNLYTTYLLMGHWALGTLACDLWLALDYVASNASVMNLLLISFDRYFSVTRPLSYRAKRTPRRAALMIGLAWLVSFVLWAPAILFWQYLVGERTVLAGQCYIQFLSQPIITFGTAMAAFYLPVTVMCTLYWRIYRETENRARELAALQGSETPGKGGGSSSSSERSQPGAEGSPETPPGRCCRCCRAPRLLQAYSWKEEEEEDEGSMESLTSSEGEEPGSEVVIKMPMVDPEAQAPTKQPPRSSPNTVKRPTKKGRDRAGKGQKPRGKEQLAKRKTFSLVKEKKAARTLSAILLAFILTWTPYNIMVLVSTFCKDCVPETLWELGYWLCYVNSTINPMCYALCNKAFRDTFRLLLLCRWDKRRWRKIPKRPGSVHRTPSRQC

[11] = molecular target: Voltage-gated sodium channel type V alpha polypeptide (Oryctolagus cuniculus) (UniProt Q2MZF0); experiment: Inhibition of Nav1.5 in rabbit cardiac myocytes up to 100 uM; format: cell-based
[12] = molecular target: T5, Muscarinic acetylcholine receptor M5 (Homo sapiens) (UniProt P08912); experiment: Agonist activity at human muscarinic M5 receptor up to 10 uM; format: functional
T5 sequence (whole entry): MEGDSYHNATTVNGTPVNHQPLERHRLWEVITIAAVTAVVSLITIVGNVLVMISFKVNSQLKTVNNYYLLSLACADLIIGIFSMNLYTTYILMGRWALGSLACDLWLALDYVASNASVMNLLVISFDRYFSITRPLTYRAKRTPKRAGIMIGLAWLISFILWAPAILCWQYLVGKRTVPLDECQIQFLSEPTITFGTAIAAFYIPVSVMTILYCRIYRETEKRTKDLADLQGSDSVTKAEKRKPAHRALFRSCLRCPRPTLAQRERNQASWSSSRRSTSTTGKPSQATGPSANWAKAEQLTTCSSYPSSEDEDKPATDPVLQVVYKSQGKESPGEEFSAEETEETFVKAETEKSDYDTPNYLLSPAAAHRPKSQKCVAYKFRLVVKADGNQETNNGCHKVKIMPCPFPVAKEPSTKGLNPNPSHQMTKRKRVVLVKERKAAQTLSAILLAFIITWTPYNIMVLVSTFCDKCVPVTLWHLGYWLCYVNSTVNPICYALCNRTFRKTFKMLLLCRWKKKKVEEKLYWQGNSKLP

Rattus norvegicus [13] = experiment: Inhibition of 5HT2A receptor-mediated head twitches in rat at 10 mg/kg, po; format: functional, organism-based; set-up: dose 10 mg/kg
[14] = Binding affinity to L-type Ca2+ channel dihydropyridine binding site at 10000 nM
[15] = Binding affinity to sodium channel site 2 at 10000 nM
[16] = Binding affinity to L-type calcium channel diltiazem binding site at 10000 nM
[17] = molecular target: T2, 5-hydroxytryptamine receptor 2B; experiment: Agonist activity at human recombinant 5HT2B receptor expressed in Swiss mouse 3T3 cells assessed as increase of fluorescence based calcium mobilization at 10 uM by FLIPR assay; format: functional, cell-based; conditions: NIH3T3
[18] = molecular target: 5-hydroxytryptamine receptor 2A (Homo sapiens) (UniProt P28223); experiment: Agonist activity at human recombinant 5HT2A receptor expressed in Swiss mouse 3T3 cells increase of fluorescence based calcium mobilization by FLIPR assay relative to control; format: functional, cell-based; conditions: NIH3T3
[19] = molecular target: 5-hydroxytryptamine receptor 2A (Canis lupus familiaris) (UniProt O46635); experiment: Agonist activity at 5HT2A receptor in dog femoral artery relative to control; format: functional, tissue-based
[20] = molecular target: T6, 5-hydroxytryptamine receptor 2C (Homo sapiens, UniProt P28335); experiment: Agonist activity at human 5HT2C receptor expressed in CHO-K1 cells assessed as increase of fluorescence based calcium mobilization by FLIPR assay; format: functional, cell-based
T6 sequence (P28335 whole entry): T1 sequence (whole entry)

Rattus norvegicus [21] = experiment: AUC (0 to infinity) in CD rat at 2 mg/kg, po administered as single dose; format: ADME, organism-based, Plasma; set-up: time infinity, dose 2 mg/kg, route oral; conditions: in vivo
Canis familiaris [22] = experiment: Increase of peak urethral pressure in iv dosed anesthetized dog stress urinary incontinence model at 20 to 45 nM of free plasma concentration relative to control; format: functional, Canis lupus familiaris, Urethra
[23] = Intrinsic clearance in rat liver microsomes; format: ADME, Microsome
[24] = Intrinsic clearance in dog liver microsomes; format: ADME, Canis lupus familiaris, Microsome
[25] = Cmax in CD rat at 2 mg/kg, po administered as single dose; format: ADME, organism-based; set-up: dose 2 mg/kg, route oral; conditions: in vivo
[26] = Elimination half life in Beagle dog at 0.030 mg/kg, iv administered as single infusion over 1 hr; format: ADME, organism-based, Canis lupus familiaris; set-up: dose 0.03 mg/kg, route intravenous; conditions: in vivo, 0.03 mg/kg, read-out: beta t1/2 (converted)
[27] = Tmax in CD rat at 2 mg/kg, po administered as single dose; format: ADME, organism-based; set-up: dose 2 mg/kg, route oral; conditions: in vivo
[28] = Intrinsic clearance in human hepatocytes assessed per 10^6 cells; format: ADME, cell-based, Liver, Hepatocyte
[29] = Intrinsic clearance in human liver microsomes; format: ADME, Microsome
[30] = Plasma clearance in Beagle dog at 0.030 mg/kg, iv administered as infusion over 1 hr; format: ADME, organism-based, Canis lupus familiaris; set-up: dose 0.03 mg/kg, route intravenous; conditions: 0.03 mg/kg
[31] = Intrinsic clearance in rat hepatocytes assessed per 10^6 cells; format: ADME, cell-based, Liver, Hepatocyte
[32] = Elimination half life in CD rat at 1 mg/kg, iv administered as single bolus dose; format: ADME, organism-based; set-up: dose 1 mg/kg, route intravenous; conditions: in vivo, read-out: beta t1/2 (converted)
[33] = Dissociation constant, pKa of the compound; format: physicochemical
[34] = Volume of distribution in Beagle dog at 0.030 mg/kg, iv administered as infusion over 1 hr; format: ADME, organism-based, Canis lupus familiaris; set-up: dose 0.03 mg/kg, route intravenous; conditions: in vivo, 0.03 mg/kg
[35] = Volume of distribution in CD rat at 1 mg/kg, iv administered as single bolus dose; format: ADME, organism-based; set-up: dose 1 mg/kg, route intravenous; conditions: in vivo
[36] = Oral bioavailability in CD rat at 2 mg/kg administered as single dose; format: ADME, organism-based; conditions: in vivo
[37] = Plasma clearance in CD rat at 1 mg/kg, iv administered as single bolus dose; format: ADME, organism-based; set-up: dose 1 mg/kg, route intravenous
[38] = Intrinsic clearance in dog hepatocytes assessed per 10^6 cells; format: ADME, cell-based, Canis lupus familiaris, Liver, Hepatocyte
[39] = Drug excretion in CD rat urine at 1 mg/kg, iv administered as single bolus dose; format: ADME, organism-based; set-up: dose 1 mg/kg, route intravenous

T2 sequence (P41595 whole entry): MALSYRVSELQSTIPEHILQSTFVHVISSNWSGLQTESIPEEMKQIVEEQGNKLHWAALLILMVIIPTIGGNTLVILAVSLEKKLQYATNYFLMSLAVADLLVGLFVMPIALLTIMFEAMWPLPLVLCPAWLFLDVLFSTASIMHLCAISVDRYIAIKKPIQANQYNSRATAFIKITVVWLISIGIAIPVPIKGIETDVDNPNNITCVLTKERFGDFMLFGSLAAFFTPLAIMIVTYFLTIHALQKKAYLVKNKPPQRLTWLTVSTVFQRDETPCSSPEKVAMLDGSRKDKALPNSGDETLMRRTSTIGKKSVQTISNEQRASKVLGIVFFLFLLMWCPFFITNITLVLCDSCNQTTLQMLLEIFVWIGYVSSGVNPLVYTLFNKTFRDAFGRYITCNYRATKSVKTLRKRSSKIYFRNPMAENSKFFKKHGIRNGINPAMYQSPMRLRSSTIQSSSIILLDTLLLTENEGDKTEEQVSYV
Sequence of 5-hydroxytryptamine receptor 2A (Canis lupus familiaris) (O46635 whole entry): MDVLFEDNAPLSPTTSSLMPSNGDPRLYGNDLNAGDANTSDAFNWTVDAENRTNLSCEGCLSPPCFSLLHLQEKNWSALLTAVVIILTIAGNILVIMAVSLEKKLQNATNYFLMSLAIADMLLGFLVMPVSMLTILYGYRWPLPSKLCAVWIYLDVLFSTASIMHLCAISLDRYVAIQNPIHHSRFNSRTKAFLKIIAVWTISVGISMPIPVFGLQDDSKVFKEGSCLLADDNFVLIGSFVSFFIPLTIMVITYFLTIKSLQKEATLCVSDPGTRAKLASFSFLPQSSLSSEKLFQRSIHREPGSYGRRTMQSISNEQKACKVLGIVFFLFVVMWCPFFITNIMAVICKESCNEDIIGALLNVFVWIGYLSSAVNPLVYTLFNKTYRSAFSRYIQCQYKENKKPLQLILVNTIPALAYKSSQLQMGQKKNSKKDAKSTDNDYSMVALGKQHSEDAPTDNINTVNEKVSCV
Sequence of 5-hydroxytryptamine receptor 2A (Homo sapiens) (P28223 whole entry): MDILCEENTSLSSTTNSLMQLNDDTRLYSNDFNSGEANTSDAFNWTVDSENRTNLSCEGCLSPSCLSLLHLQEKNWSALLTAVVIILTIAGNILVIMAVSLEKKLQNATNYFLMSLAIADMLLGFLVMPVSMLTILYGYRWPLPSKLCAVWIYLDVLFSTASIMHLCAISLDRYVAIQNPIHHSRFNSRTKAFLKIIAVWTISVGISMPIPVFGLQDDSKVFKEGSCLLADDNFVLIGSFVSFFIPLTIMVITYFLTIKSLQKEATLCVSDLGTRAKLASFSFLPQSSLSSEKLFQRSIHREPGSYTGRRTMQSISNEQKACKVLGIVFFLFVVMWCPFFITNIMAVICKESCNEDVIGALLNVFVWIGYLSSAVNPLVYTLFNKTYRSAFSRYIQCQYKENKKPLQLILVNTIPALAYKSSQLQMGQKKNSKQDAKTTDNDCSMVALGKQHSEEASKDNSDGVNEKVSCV

c1ccc(-c2ncc3c(n2)CCNCC3)cc1
Activity [1]: inactive

Clc1ccc(Cc2ncc3c(n2)CCNCC3)cc1
EC50 [2]: 60 nM | Emax [3]: 62% | Emax [1]: 65%

C[C@H]1CNCCc2ccc(Cl)cc21
Activity [4]: 82% | Emax [5]: 100% | Emax [1]: 84%

FC(F)(F)c1ccccc1Cc1ncc2c(n1)CCNCC2
Emax [6]: 15% | Emax [7]: 15%

Fc1cccc(Cc2ncc3c(n2)CCNCC3)c1
EC50 [2]: 183 nM | Emax [3]: 66% | Emax [1]: 67%

c1ccc(Cc2ncc3c(n2)CCNCC3)cc1 [listing 1 of 2 here]
Activity (Canis familiaris [8]): Dose-dependent effect | inhibition [9]: < 20% | Activity [10]: inactive | Activity [11]: inactive | Activity [12]: inactive | inhibition (Rattus norvegicus [13]): inactive | Activity [4]: 81% | inhibition [14]: < 20% | inhibition [15]: < 20% | Emax [6]: 33% | inhibition [16]: < 20% | Emax [17]: 33% | Emax [18]: 82% | Emax [19]: 51%

c1ccc(-c2ncc3c(n2)CNCC3)cc1
EC50 [20]: 380 nM | Emax [1]: 92%

Fc1ccc(Cc2ncc3c(n2)CCNCC3)cc1
EC50 [2]: 610 nM | Emax [3]: 90% | Emax [1]: 60%

c1ccc(-c2ncc3c(n2)CCNC3)cc1
Activity [1]: inactive

c1ccc(CCCc2ncc3c(n2)CCNC3)cc1
EC50 [20]: 1900 nM | Emax [1]: 100%

c1ccc(Cc2ncc3c(n2)CCNCC3)cc1 [listing 2 of 2 here]
AUC (Rattus norvegicus [21]): 290 ng·h/mL | Activity (Canis familiaris [22]): 20% | microsomal CLint [23]: 28 µL/min/mg | microsomal CLint [24]: < 7 µL/min/mg | Cmax [25]: 49 ng/mL | half-life [26]: 3.4 h | Tmax [27]: 0.25 h | hepatocyte CLint [28]: < 5 µL/min/1e6 cells | microsomal CLint [29]: < 7 µL/min/mg | clearance [30]: 11.6 mL/min/kg | hepatocyte CLint [31]: 15 µL/min/1e6 cells | half-life [32]: 2.8 h | pKa [33]: 8.5 | Vd [34]: 3.5 L/kg | Vd [35]: 8.9 L/kg | bioavailability [36]: 44% | clearance [37]: 51 mL/min/kg | hepatocyte CLint [38]: < 5 µL/min/1e6 cells | dose excreted [39]: 10%

c1ccc(Cc2ncc3c(n2)CNCC3)cc1
Emax [7]: 27%
